# What was measured:
# Assay type in all cases: physicochemical
# [1] = PTR-MS real-time headspace release, watermelon flavor model in water (Example 1); set-up: Sample A (PG) Mean / Sample B (1,3-propanediol) Mean: unit not given here; details: for Sample B (1,3-propanediol) Mean / Sample A (PG) Mean: PTR-MS headspace, diluted in water, 90 minutes equilibration, mean of three; for Sample B (1,3-propanediol) Mean: watermelon flavor concentrate in 1,3-propanediol; for Sample A (PG) Mean: watermelon flavor concentrate in propylene glycol; for Percent Release Difference: Sample B (1,3-propanediol) relative to Sample A (PG)
# Method: The impact of 1,3-propanediol on the release of flavor compounds can be analyzed by Proton Transfer Reaction Mass Spectrometry (PTR-MS; model TOF-8000 from Ionicon Analytik Inc.), where real-time headspace release of volatiles is measured. A sampling apparatus is needed in conjunction with the PTR-MS inlet to prevent variations caused by headspace kinetics. By one exemplary approach, the sampling apparatus includes a 4 ounce sample vessel equipped with a 2-hole lid which may be sealed by an adhesive film to allow equilibration. […]. The holes are equal sized (˜2 mm diameter) and match the outer diameter of the PTR-MS inlet line. The flow of the dilution gas into the vessel is regulated by the vacuum and proportional valve of the PTR-MS inlet system. The sample vessel has a base diameter of 47 mm and is 45 mm high, of which 8 mm of height is occupied by the sample in the vessel in these experiments. The 2 holes in the lid are equidistant from the edge of the vessel (˜20 mm) and about 30 mm from each other. The PTR-MS inlet is braced by clamps in a fixed position vertically above the laboratory bench (˜55 mm) and a silicone rubber depth gauge is affixed to the PTR-MS inlet tubing and set at 18 mm. The PTR-MS inlet is thus consistently oriented in a vertical position 18 mm below the inside lid of the vessel and 19 mm above the sample in the vessel. The sample vessel is then held in place during sampling according to the depth gauge on the inlet line and the vessel is subsequently supported on the bench by a 10 mm plastic spacer.
# 15 grams of the sample to be tested (e.g., food or beverage product containing 1,3-propanediol) are added to the vessel. The vessel is sealed and allowed to equilibrate at room temperature (˜22° C.) for 90 minutes. At the time of sampling, the seal is removed from both the sampling hole and the dilution gas hole in the lid and the vessel is immediately affixed to the PTR-MS inlet via the sampling hole. The real-time released flavor is measured from the headspace of the sample vessel for two minutes (according to the conditions listed in Table 1 below). A comparative sample is prepared that is otherwise identical to the test sample but contains propylene glycol or water instead of 1,3-propanediol. The comparative sample is then analyzed in triplicate by PTR-MS using the above-described procedure. The data can be analyzed using PTR-MS Viewer, Version 3.0.0.101 (Ionicon Analytik G.m.b.H). The point of maximum intensity for each compound of interest can be determined and recorded according to the PTR-MS Viewer software. The maximum intensity in counts over the timescale for each compound of interest can be used for data analysis as it reflects the static equilibrium headspace concentration in the system at the moment of seal removal. Due to the necessity of a dilution gas, the volatile concentration decreases over time as the compounds of interest re-equilibrate to a state of dynamic equilibrium in the headspace.
# […]. Sample A was prepared with 20 grams watermelon flavor concentrate and 80 grams propylene glycol. Sample B was prepared with 20 grams watermelon flavor concentrate and 80 grams 1,3-propanediol. Each of the samples was further diluted by adding 0.08 grams of each diluted concentrate to 99.92 grams water to provide a flavor water solution.
# The diluted samples were analyzed by Proton Transfer Reaction Mass Spectrometry (PTR-MS; model TOF-8000 from Ionicon Analytik Inc.) for real-time headspace release volatiles measurement. Samples were analyzed in triplicate. […]. […].
# [2] = PTR-MS headspace release with various non-aqueous liquids (diols) at 0.05:100 (Example 3); details: ratio 0.05:100; for PTR-MS headspace release in 1,3-butanediol: non-aqueous liquid 1,3-butanediol; for PTR-MS headspace release in 1,3-butanediol / PTR-MS headspace release in 1,3-propanediol / PTR-MS headspace release in 1,4-butanediol / PTR-MS headspace release in 1,7-heptanediol / PTR-MS headspace release in Propylene glycol: diluted in water; for PTR-MS headspace release in 1,3-propanediol: non-aqueous liquid 1,3-propanediol; for PTR-MS headspace release in 1,4-butanediol: non-aqueous liquid 1,4-butanediol; for PTR-MS headspace release in 1,7-heptanediol: non-aqueous liquid 1,7-heptanediol; for PTR-MS headspace release in Propylene glycol: non-aqueous liquid propylene glycol
# Method: […]. The flavoring was then diluted in water for analysis. The final concentration of each compound was held constant at 8 ppm except furfuryl mercaptan was included at 1.6 ppm to maintain a constant flavor level in the resulting beverage while the non-aqueous liquid varied but the ratio of each compound to non-aqueous liquid was held constant at 0.05:100. A variety of non-aqueous liquids were evaluated, including 1,4-butandiol; 1,7-heptandiol; 1,3-butandiol, propylene glycol, and 1,3-propanediol.
# Samples were analyzed by PTR-MS as described in Example 1.
# Percent suppression was calculated by the following formula: (I1-3-diol−Ialternate diol)/Ialternate diol×100.
# [3] = PTR-MS headspace release at various flavor compound to 1,3-propanediol or PG ratios (Example 2); details: for release suppressed in the presence of 1,3-propanediol: 10% cut-off for significant difference, relative to PG; for effect of 1,3-propanediol on release: flavor/1,3-propanediol ratio of 0.05:100; for Percent Suppression by 1,3-propanediol: (IZ−IPG)/IPG×100
# Method: The compounds listed below in Table 3 were added together to provide a liquid flavoring to analyze the role, if any, of the amount of 1,3-propanediol on flavor release. […] The amount of each flavor compound in the beverage was held constant at 8 ppm except furfuryl mercaptan was included at 1.6 ppm while the amount of propylene glycol or 1,3-propanediol varied.
# The percent suppression was calculated using the following formula: (IZ−IPG)/IPG×100, where I is peak height, “Z” is 1,3-propanediol and “PG” is propylene glycol.
# [4] = PTR-MS headspace release in neat solvent, solvent/solvent experiment (Example 5); set-up: key to Release Differences: “Z” indicates that 1,3-propanediol had higher equilibrium maximum (meaning more of the flavor was released in 1,3-propanediol); “P” indicates that propylene glycol had higher equilibrium maximum; “-” indicates no statistical difference (95% significance) between the two samples; details: 1.5 hrs equilibration; for Release Differences: 1,3-propanediol versus propylene glycol as sole solvent, 95% significance
# Method: […]. Then the head space was analyzed as described above.
# 0.86 grams of the concentrate was added to 100 grams of either propylene glycol or 1,3-propanediol to provide a 1,3-propanediol diluted concentrate or propylene glycol diluted concentrate. The diluted concentrates were then further diluted as outlined in Table 10 below.
# A 15 gram sample was weighed into a 4 oz vessel and analyzed at 1.5 hrs. of equilibration time as described in the method of Example 4.
# [5] = ratio 0.005:100, negative = suppressed vs PG
SMILES,"Sample B (1,3-propanediol) Mean [1]",Sample A (PG) Mean [1],Percent Release Difference [1],"PTR-MS headspace release in 1,3-butanediol [2]","PTR-MS headspace release in 1,3-propanediol [2]","PTR-MS headspace release in 1,4-butanediol [2]","PTR-MS headspace release in 1,7-heptanediol [2]",PTR-MS headspace release in Propylene glycol [2],other results
CCOC(C)=O [Ethyl acetate],1410,1797,−21.5%,,,,,,
CCCCOC(=O)CCC [Butyl butyrate],,,,27.9,13.57,49.4,46.4,10.50,"Percent suppression by 1,3-butanediol relative to 1,4-butanediol [2]: −77.2%; Percent Suppression by 1,3-propanediol [3, 5]: −3.3%; Percent Suppression by 1,3-propanediol ([3]; ratio 0.05:100): 29.2%; Percent Suppression by 1,3-propanediol ([3]; ratio 5:100): −20.5%; Percent Suppression by 1,3-propanediol ([3]; ratio 15:100): −8.2%; Release Differences [4]: Z"
CCCCCCO [Hexanol],,,,0.3,0.20,0.5,0.3,0.37,"Percent suppression by 1,3-butanediol relative to 1,4-butanediol [2]: −50.0%; release suppressed in the presence of 1,3-propanediol [3]: suppressed; Percent Suppression by 1,3-propanediol [3, 5]: −3.6%; Percent Suppression by 1,3-propanediol ([3]; ratio 0.05:100): −45.9%; Percent Suppression by 1,3-propanediol ([3]; ratio 5:100): −9.8%; Percent Suppression by 1,3-propanediol ([3]; ratio 15:100): −20.0%; Release Differences [4]: Z; release in 1,3-propanediol versus propylene glycol, solvent/solvent [4]: released faster in 1,3-propanediol"
O=CCc1ccccc1 [Phenyl acetaldehyde],0.78,0.80,−2.5%,,,,,,
CCC/C=C/C(=O)O [Trans-2-hexenoic acid],0.86,1.06,−18.3%,,,,,,
CC(C=O)Cc1ccc(C(C)C)cc1 (stereo not shown) [Cyclamen aldehyde],0.36,0.40,−10.0%,,,,,,
C/C=C\C(=O)C1C(C)=CCCC1(C)C (stereo not drawn) [Alpha damascone],0.57,0.82,−30.6%,,,,,,
CCC(C)COC(C)=O (stereo not shown) [2-methylbutyl acetate],4.27,5.30,−19.5%,,,,,,
"OCCCO [1,3-propanediol]",,,,,,,,,"flavor retention compared to use of propylene glycol ([1]; watermelon flavor model, Table 2): generally resulted in increased flavor retention"
"OCCCCCCCO [1,7-heptandiol, reference compound]",,,,,,,,,flavor release with the non-aqueous liquid relative to comparative diol [2]: faster release than propylene glycol
CC(C)CC=O [Isovaleraldehyde],,,,40.9,12.35,62.5,63.5,12.51,"Percent suppression by 1,3-butanediol relative to 1,4-butanediol [2]: −53.0%; Percent Suppression by 1,3-propanediol [3, 5]: 3.7%; Percent Suppression by 1,3-propanediol ([3]; ratio 0.05:100): −1.3%; Percent Suppression by 1,3-propanediol ([3]; ratio 5:100): −22.2%; Percent Suppression by 1,3-propanediol ([3]; ratio 15:100): −2.6%"
CCCCCCCCCC(=O)O [Decanoic acid],,,,0.6,0.20,1.4,1.0,0.25,"effect of 1,3-propanediol on release [3]: minimal effect"

# Now from value to compound, other results behind:
"Sample B (1,3-propanediol) Mean [1]",Sample A (PG) Mean [1],Percent Release Difference [1],"PTR-MS headspace release in 1,3-butanediol [2]","PTR-MS headspace release in 1,3-propanediol [2]","PTR-MS headspace release in 1,4-butanediol [2]","PTR-MS headspace release in 1,7-heptanediol [2]",PTR-MS headspace release in Propylene glycol [2],SMILES,other results
0.05,0.05,3.4%,,,,,,COc1cc(C=O)ccc1O [Vanillin],
0.04,0.07,−48.1%,,,,,,CC(=O)CCc1ccc(O)cc1 [Raspberry ketone],
24.50,22.17,10.5%,20.7,18.60,27.5,24.5,28.52,CCO [Ethanol],"release suppressed in the presence of 1,3-propanediol [3]: suppressed; effect of 1,3-propanediol on release [3]: significant suppression effect; Percent Suppression by 1,3-propanediol [3, 5]: 11.9%; Percent Suppression by 1,3-propanediol ([3]; ratio 0.05:100): −34.8%; Percent Suppression by 1,3-propanediol ([3]; ratio 5:100): −12.1%; Percent Suppression by 1,3-propanediol ([3]; ratio 15:100): −0.9%"
1.32,0.95,38.8%,,,,,,CCCCCCC(C=O)=Cc1ccccc1 [Hexyl cinnamic aldehyde],
,,,91.7,30.25,143.8,140.0,28.00,CCCC(=O)O [Butyric acid],"Percent suppression by 1,3-butanediol relative to 1,4-butanediol [2]: −56.8%; effect of 1,3-propanediol on release [3]: minimal effect; Percent Suppression by 1,3-propanediol [3, 5]: 7.5%; Percent Suppression by 1,3-propanediol ([3]; ratio 0.05:100): 8.0%; Percent Suppression by 1,3-propanediol ([3]; ratio 5:100): −18.4%; Percent Suppression by 1,3-propanediol ([3]; ratio 15:100): −6.0%"
1.25,1.25,0.0%,,,,,,CCc1occc(=O)c1O [Ethyl maltol],

# — patent publication US9883691B2, “Food and beverage products containing 1,3-propanediol and methods of modifying flavor release using 1,3-propanediol” (Kraft Foods Group Brands LLC, priority 2012, dated 2018)
